Measured values as given in article PMC6508677, “Identification of druggable small molecule antagonists of the Plasmodium falciparum hexose transporter PfHT and assessment of ligand access to the glucose permeation pathway via FLAG-mediated protein engineering” (PLoS ONE, 2019).
Several values for one entry are separate records, joined by “and”; a condition that tells them apart may be missing. Equal values may be shown once. Read-outs that look alike come from different tables or passages of the source.

Test system: P. falciparum strain 3D7
Experiment: P. falciparum growth inhibition assay (Picogreen DNA content, 3 days)
Type: cell-based, Plasmodium falciparum
Details: for EC50: P. falciparum 3D7 intraerythrocytic forms, 3 days, mean, read-out: EC50 (IC50 in Fig 4A) for inhibition of parasite growth; for IC50: 3D7, 3D7, Expt 1-3, read-out: IC50 for inhibition of parasite growth, individual experiments
Description: P. falciparum strain 3D7 was obtained from the Malaria Research and Reference Reagent Resource Center (MR4, ATCC, Manassas, VA). Parasites were cultured in a 2% suspension of human erythrocytes and RPMI 1640 (Sigma) medium supplemented with 27 mM sodium bicarbonate, 11 mM glucose, 5 mM HEPES, 1 mM sodium pyruvate, 0.37 mM hypoxanthine, 0.01 mM thymidine, 10 μg/ml gentamicin, and 0.5% Albumax (Gibco) at 37°C, 5% O2/ 5% CO2 / 90% N2 atmosphere as previously described.
Asynchronous P. falciparum cultures were diluted to 1% parasitemia and were treated with compounds at concentrations ranging from 0.195 μM—100 μM. Growth inhibition assays were performed in 100 μl cultures in opaque 96-well plates. Parasite growth was quantified after 3 days by measuring DNA content using Picogreen (Life Technologies)[22]. Fluorescence was measured by a FLUOstar Omega microplate reader (BMG Labtech) at 485 nm excitation and 528 nm emission. IC50 values were calculated by least squares nonlinear regression analysis using GraphPad Prism 6.0 software.

[1] = Plasmodium falciparum, 3D7, 72 h

Compound | EC50 [µM] | IC50 (Plasmodium falciparum) [µM] | EC50 [1] [µM] | Parasite kill curve raw reading (Picogreen fluorescence), duplicate wells of Expt 1-3 (concentration 0.195312 (μM)) | Parasite kill curve raw reading (Picogreen fluorescence), duplicate wells of Expt 1-3 (concentration 0.390625 (μM)) | Parasite kill curve raw reading (Picogreen fluorescence), duplicate wells of Expt 1-3 (concentration 0.78125 (μM)) | Parasite kill curve raw reading (Picogreen fluorescence), duplicate wells of Expt 1-3 (concentration 1.5625 (μM)) | Parasite kill curve raw reading (Picogreen fluorescence), duplicate wells of Expt 1-3 (concentration 3.125 (μM)) | Parasite kill curve raw reading (Picogreen fluorescence), duplicate wells of Expt 1-3 (concentration 6.25 (μM)) | Parasite kill curve raw reading (Picogreen fluorescence), duplicate wells of Expt 1-3 (concentration 25 (μM)) | Parasite kill curve raw reading (Picogreen fluorescence), duplicate wells of Expt 1-3 (concentration 50 (μM)) | Parasite kill curve raw reading (Picogreen fluorescence), duplicate wells of Expt 1-3 (concentration 12.5 (μM))
Cc1ccc(S(=O)(=O)CCNC(=O)c2c(-c3c(Cl)cccc3Cl)noc2C)cc1 [WU-1, 3-(2,6-dichlorophenyl)-5-methyl-N-[2-(4-methylbenzenesulfonyl)ethyl]-1,2-oxazole-4-carboxamide] | 5.49 | 4.66 | 5.5 ± 0.6 | 31647.2 and 35553.2 and 49650 and 55614 and 44370 and 49901 | 38759.2 and 38857.2 and 52621 and 61368 and 45376 and 55663 | 33807.2 and 31780.2 and 49005 and 55418 and 44284 and 47486 | 30912.2 and 34557.2 and 48254 and 53201 and 42714 and 48519 | 26767.2 and 25415.2 and 46950 and 47685 and 35273 and 35563 | 20627.2 and 20040.2 and 32177 and 39080 and 23717 and 27707 | 7109.17 and 9009.17 and 13213 and 12190 and 10238 and 11917 | 6656.17 and 8203.17 and 11766 and 11899 and 11265 and 11133 | –
COc1c(Br)cc([N+](=O)[O-])c(OC)c1C(=O)NC(=O)Nc1c(C)cccc1Cl [WU-2, 3-(3-bromo-2,6-dimethoxy-5-nitrobenzoyl)-1-(2-chloro-6-methylphenyl)urea] | – | 21.3 | 22.8 ± 0.8 | 56098 and 51137 and 60240 and 31267.2 and 43585.2 and 60791 | 62198 and 51117 and 53186 and 43543.2 and 40121.2 and 61300 | 60027 and 63524 and 61078 and 36660.2 and 37397.2 and 61445 | 62718 and 60757 and 53560 and 40753.2 and 35617.2 and 59505 | – | – | 31771 and 33221 and 31489 and 18075.2 and 22893.2 and 29768 | – | 44791 and 46211 and 39233 and 29745.2 and 34796.2 and 56088
